In publication PMC10447463, “Data-mining unveils structure–property–activity correlation of viral infectivity enhancing self-assembling peptides” (Nature Communications, 2023):
Where “and” joins values, the source holds several entries; their conditions need not be identical. Equal entries are not always repeated. Where two headings read alike, the source gives them in different places.

Assays:
[1] = Zeta-potential measurement; assay type: physicochemical; conditions: for Zeta-pot. / mV: zeta potential of peptide, Fig S15 source data
Summary of the method: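 Peptides diluted from DMSO stock into PBS pH 7.4 to 1 mg/mL and aged 1 d at RT, then diluted into 1 mM aqueous KCl. Zeta potential derived from electrophoretic mobility via Smoluchowski; triplicates, averaged over two independent experiments.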

[2] = Turbidity, derived count rate of scattered light; assay type: physicochemical; conditions: for Log Count Rate: log of derived count rate
Summary of the method: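 Samples: 1 mg/mL in PBS pH 7.4 (from DMSO), 1 d at RT, then diluted in 1 mM KCl immediately before measurement. Triplicates, two independent runs averaged.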

[3] = system: HIV-1 infection of TZM-bl cells; assay: HIV-1 infectivity enhancement assay, β-galactosidase luminescence; assay type: cell-based; conditions: for Log10 Inf. rel. to EF-C: log10 of HIV-1 infection of TZM-bl cells relative to EF-C, Fig S15 source data, asymmetric std dev errors
[4] = β-sheet content by ATR-FT-IR; assay type: physicochemical
Summary of the method: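 Conversion rate: fluorescamine fluorescence (ex 365/em 470 nm, 20 min RT) of 3 kDa filtrate versus unfiltered PNF, CR = 100 − 100 × filtrate/original intensity, triplicates. β-sheet content came from ATR FT-IR of lyophilized 1 mg/mL PNF powder, 64 scans.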

[5] = category 1 or 0 from count rate, key not given
[6] = derived count rate of scattered light, mean, std deviation in next column
[7] = Feb2021, Log10 of infectivity relative to EF-C
[8] = Feb2021, n-fold enhancement relative to EF-C
[9] = infectivity class (low / medium / high) of each library peptide, main list in c1-c6, same classes repeated in sub-lists of sequences containing the hydrophobicity/charge patterns P+,H0,P+,H0,P0,H0,P0, P+,H0,P0,H0,P0,H0,P0, P+,H0,P0,H0
[10] = Feb2021, n-fold infectivity relative to EF-C
[11] = category derived from the zeta potential
[12] = category 1 or 0 derived from the count rate, key not given
[13] = Feb2021, infectivity enhancement relative to EF-C
[14] = infectivity class (low / medium / high) of the peptide in the sequence-pattern analysis, Fig. S22-A4, class limits not given

## RGDSKIKIQIC [TM113 / RC11]
[1]; category from zeta potential
  Zeta category ( +1 = if > 4 mV;-1 = if < -4 mV; 0 = -4mV to 4 mV): 1 (+1 = if > 4 mV)
[1]; mean, Std Zeta in next column
  Zeta Pot. / mV: 15.1 mV
[1]
  Zeta-pot. / mV: 15.1 mV
[2]; [5]
  Zeta Count Rate Category: 1
[2]; [6]
  Zeta Count Rate / kcps: 2699 kcps
[3]; [7]
  Log10 of Rel to EFC (Feb2021): -0.2249
[3]; Feb2021, infectivity relative to virus only (0 µM)
  n-fold to virus (Feb2021): 25.03 n-fold
[3]; [8]
  Rel-to EFC (Feb-2021): 0.5957
[3]; [9]
  infectivity: medium
[3]
  Log10 Inf. rel. to EF-C: -0.2249
[4]; ATR-FT-IR
  FTIR ß-sheet content/ %: 39%

## KAKAQA [JJA2 / TM153]
[1]
  Zeta category ( +1 = if > 4 mV;-1 = if < -4 mV; 0 = -4mV to 4 mV): -1 (-1 = if < -4 mV)
  Zeta-pot. / mV: -14.08 mV
[1]; category from zeta potential
  Zeta category ( +1 = if > 4 mV;-1 = if < -4 mV; 0 = -4mV to 4 mV): -1 (-1 = if < -4 mV)
[1]; mean, Std Zeta in next column
  Zeta Pot. / mV: -14.08 mV
[1]; mean, Std in separate column
  Zeta Pot. / mV: -14.08 mV
[2]; category 1/0, no key printed
  Zeta Count Rate Category: 0
[2]; [5]
  Zeta Count Rate Category: 0
[2]; [6]
  Zeta Count Rate / kcps: 20.93 kcps
[2]; derived count rate of scattered light, mean, std deviation in separate column
  Zeta Count Rate / kcps: 20.93 kcps
[3]; Feb2021, 1.3 µM value relative to virus only (0 µM)
  n-fold to virus (Feb2021): 0.7586
[3]; [7]
  Log10 of Rel to EFC (Feb2021): -1.743
[3]; [8]
  Rel-to EFC (Feb-2021): 0.01805
[3]; [10]
  Rel-to EFC (Feb-2021): 0.01805
[3]; Feb2021, unrounded values of the 1.3 µM column
  Absolute Infectivity / RLU /s (Feb2021): 146.7 RLU /s
[3]; Feb2021 run, infectivity n-fold relative to virus alone
  n-fold to virus (Feb2021): 0.7586
[3]; Feb2021 run, log10 of infectivity relative to EF-C
  Log10 of Rel to EFC (Feb2021): -1.743
[3]; Feb2021 run, n-fold infectivity relative to EF-C
  Rel-to EFC (Feb-2021): 0.01805
[3]; [9]
  infectivity: low
[3]
  Log10 Inf. rel. to EF-C: -1.743
[4]
  FTIR ß-sheet content/ %: 40.34%
[4]; ATR-FT-IR
  FTIR ß-sheet content/ %: 40% and 40.34%

## KLKLQLL [TG4 / (KM2)]
[1]
  Zeta Pot. / mV: -4.93 mV
  Zeta category ( +1 = if > 4 mV;-1 = if < -4 mV; 0 = -4mV to 4 mV): -1 (-1 = if < -4 mV)
  Zeta-pot. / mV: -4.93 mV
[1]; [11]
  Zeta category ( +1 = if > 4 mV;-1 = if < -4 mV; 0 = -4mV to 4 mV): -1 (-1 = if < -4 mV)
[1]; mean, Std Zeta in next column
  Zeta Pot. / mV: -4.93 mV
[2]; category 1 / 0, no key given
  Zeta Count Rate Category: 0
[2]; [12]
  Zeta Count Rate Category: 0
[2]; derived count rate of scattered light
  Zeta Count Rate / kcps: 72.67 kcps
[2]; [6]
  Zeta Count Rate / kcps: 72.67 kcps
[3]; [7]
  Log10 of Rel to EFC (Feb2021): -2.156
[3]; Feb2021, figures match the 1.3 µM column
  Absolute Infectivity / RLU /s (Feb2021): 163.3 RLU /s
[3]; [13]
  Rel-to EFC (Feb-2021): 0.006983
[3]; Feb2021, infectivity relative to virus only
  n-fold to virus (Feb2021): 0.2934
[3]; [10]
  Rel-to EFC (Feb-2021): 0.006983
[3]; [9]
  infectivity: low
[3]; [14]
  infectivity: low
[3]
  Log10 Inf. rel. to EF-C: -2.156
[4]; ATR-FT-IR
  FTIR ß-sheet content/ %: 0%

## CKFKFQFW [TM72]
[1]; [11]
  Zeta category ( +1 = if > 4 mV;-1 = if < -4 mV; 0 = -4mV to 4 mV): 1 (+1 = if > 4 mV)
[1]; mean, Std Zeta in next column
  Zeta Pot. / mV: 15.2 mV
[1]
  Zeta-pot. / mV: 15.2 mV
[2]; Fig S8 panels A, C, asymmetric log errors
  Log Count Rate: 4.466
[2]; Fig S8 panels B, D
  Log Count Rate: 4.466
[2]; Fig S8 panels B, D, turbidity, derived count rate of scattered light
  Count Rate: 29210.5
[2]; [12]
  Zeta Count Rate Category: 1
[2]; [6]
  Zeta Count Rate / kcps: 29210.5 kcps
[3]; [7]
  Log10 of Rel to EFC (Feb2021): -0.05512
[3]; [13]
  Rel-to EFC (Feb-2021): 0.8808
[3]; Fig S8 panels B, D, infectivity enhancement relative to EF-C
  Rel-to EFC: 0.8808
[3]; Fig S8 panels B, D, infectivity n-fold relative to virus alone
  n-fold to virus: 37.01
[3]; [9]
  infectivity: high
[3]; [14]
  infectivity: high
[3]
  Log10 Inf. rel. to EF-C: -0.05512
[4]; ATR-FT-IR
  FTIR ß-sheet content/ %: 43%
